In publication PMC8694051 (Proceedings of the National Academy of Sciences of the …, 2021) one finds IC50, half-life and EC50 data, which are given here for seven compounds.

Each structure is given as a SMILES string. Residues, ends and D or L forms follow the SMILES beside them.

The target of one series is Caspase 14 (Homo sapiens, UniProt P31944). Briefly: Protease profiling panel, 10-dose IC50. Type of series: biochemical.
The target of the next series is Caspase 6 (Homo sapiens, UniProt P55212). Briefly: Protease profiling panel, 10-dose IC50. The series is classed as biochemical.
Chain of Caspase 6 (P55212 24-293, species assumed): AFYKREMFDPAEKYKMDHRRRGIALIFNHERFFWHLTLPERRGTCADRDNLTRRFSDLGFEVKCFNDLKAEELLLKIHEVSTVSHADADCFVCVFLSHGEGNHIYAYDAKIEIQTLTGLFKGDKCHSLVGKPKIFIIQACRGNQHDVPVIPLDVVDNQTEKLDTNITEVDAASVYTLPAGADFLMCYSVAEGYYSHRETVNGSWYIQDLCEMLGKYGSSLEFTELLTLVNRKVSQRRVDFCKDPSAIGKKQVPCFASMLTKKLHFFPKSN
The target in the next series is Caspase 7 (Homo sapiens, UniProt P55210). The series is described as follows: Protease profiling panel, 10-dose IC50. Type of series: biochemical.
Chain of Caspase 7 (P55210 whole entry, species assumed): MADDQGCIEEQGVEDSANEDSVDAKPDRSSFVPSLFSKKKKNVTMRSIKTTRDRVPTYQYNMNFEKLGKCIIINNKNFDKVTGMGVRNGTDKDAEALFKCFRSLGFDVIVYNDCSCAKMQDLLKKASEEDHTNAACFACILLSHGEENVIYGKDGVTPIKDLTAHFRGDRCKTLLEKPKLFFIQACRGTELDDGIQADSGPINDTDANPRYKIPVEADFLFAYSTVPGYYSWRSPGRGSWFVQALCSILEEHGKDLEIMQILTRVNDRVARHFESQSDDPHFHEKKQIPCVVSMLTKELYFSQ
The target of another series is Caspase 1 (Homo sapiens, UniProt P29466). Briefly: Protease profiling panel, 10-dose IC50. The series is classed as biochemical.
Chain of Caspase 1 (P29466 120-404, species assumed): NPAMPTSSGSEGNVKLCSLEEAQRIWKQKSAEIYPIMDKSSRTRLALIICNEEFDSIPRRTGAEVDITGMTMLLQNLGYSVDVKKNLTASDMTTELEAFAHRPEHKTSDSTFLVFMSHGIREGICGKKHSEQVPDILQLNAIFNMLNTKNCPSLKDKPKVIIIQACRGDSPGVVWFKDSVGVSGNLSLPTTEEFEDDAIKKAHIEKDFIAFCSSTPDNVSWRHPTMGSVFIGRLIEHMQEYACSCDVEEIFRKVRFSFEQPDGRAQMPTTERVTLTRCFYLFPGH
In a further series the target is Caspase 2 (Homo sapiens, UniProt P42575). Briefly: Protease profiling panel, 10-dose IC50. Type of series: biochemical.
Chain of Caspase 2 (P42575 whole entry, species assumed): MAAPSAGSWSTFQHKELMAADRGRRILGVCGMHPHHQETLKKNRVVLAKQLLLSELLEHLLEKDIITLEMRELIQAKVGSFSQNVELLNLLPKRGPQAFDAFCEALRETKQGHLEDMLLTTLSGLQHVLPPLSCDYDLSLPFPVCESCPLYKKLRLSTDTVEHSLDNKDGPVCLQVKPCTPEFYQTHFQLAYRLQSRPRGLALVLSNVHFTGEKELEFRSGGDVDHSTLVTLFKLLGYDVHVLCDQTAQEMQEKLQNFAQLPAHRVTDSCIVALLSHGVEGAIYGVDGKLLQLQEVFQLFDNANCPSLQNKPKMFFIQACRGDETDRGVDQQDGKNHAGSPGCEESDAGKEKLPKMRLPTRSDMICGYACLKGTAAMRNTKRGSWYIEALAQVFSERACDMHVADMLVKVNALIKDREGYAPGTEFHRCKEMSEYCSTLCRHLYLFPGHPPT
Another series has as its target Caspase 4 (Homo sapiens, UniProt P49662). The series is described as follows: Protease profiling panel, 10-dose IC50. Type of series: biochemical.
The target of another series is Caspase 5 (Homo sapiens, UniProt P51878). The series is described as follows: Protease profiling panel, 10-dose IC50. The series is classed as biochemical.
Chain of Caspase 5 (P51878 137-434, species assumed): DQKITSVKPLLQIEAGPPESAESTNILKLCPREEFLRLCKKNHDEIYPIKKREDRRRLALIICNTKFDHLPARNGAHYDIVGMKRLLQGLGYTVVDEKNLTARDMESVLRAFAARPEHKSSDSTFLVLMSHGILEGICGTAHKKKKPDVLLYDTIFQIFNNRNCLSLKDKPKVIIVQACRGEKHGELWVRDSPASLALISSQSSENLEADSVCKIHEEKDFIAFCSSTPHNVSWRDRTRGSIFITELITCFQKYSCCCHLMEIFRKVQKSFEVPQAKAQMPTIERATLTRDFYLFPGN
A further series concerns the target Caspase 8 (Homo sapiens, UniProt Q14790). The series is described as follows: Protease profiling panel, 10-dose IC50. The series is classed as biochemical.
Another series concerns the target Caspase 9 (Homo sapiens, UniProt P55211). The series is described as follows: Protease profiling panel, 10-dose IC50. Type of series: biochemical.
A further series concerns the target Caspase 10 (Homo sapiens, UniProt Q92851). The series is described as follows: Protease profiling panel, 10-dose IC50. The series is classed as biochemical.
The next series has as its target Caspase 11 (Mus musculus, UniProt P70343). The series is described as follows: Protease profiling panel, 10-dose IC50. The series is classed as biochemical.
The target of the next series is T1, HGFA (Homo sapiens, UniProt Q04756).
T1 sequence (Q04756 373-655): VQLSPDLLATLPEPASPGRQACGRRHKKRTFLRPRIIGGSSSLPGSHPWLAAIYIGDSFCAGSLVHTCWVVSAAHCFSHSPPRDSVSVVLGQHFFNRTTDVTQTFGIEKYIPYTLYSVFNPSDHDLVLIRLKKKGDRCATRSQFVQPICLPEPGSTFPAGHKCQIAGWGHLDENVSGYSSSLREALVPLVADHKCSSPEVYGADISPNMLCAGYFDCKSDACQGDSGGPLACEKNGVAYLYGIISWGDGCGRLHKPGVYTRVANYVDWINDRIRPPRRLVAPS
Briefly: HGFA enzyme inhibition (published assays). The series is classed as biochemical.

The target of a further series is Thrombin (Homo sapiens, UniProt P00734). Briefly: Thrombin enzyme inhibition (published assays). Type of series: biochemical.
For another series, the target named is Factor Xa (Homo sapiens, UniProt P00742). Briefly: Factor Xa enzyme inhibition (published assays). Type of series: biochemical.
Chain of Factor Xa (P00742 235-488 limits assumed): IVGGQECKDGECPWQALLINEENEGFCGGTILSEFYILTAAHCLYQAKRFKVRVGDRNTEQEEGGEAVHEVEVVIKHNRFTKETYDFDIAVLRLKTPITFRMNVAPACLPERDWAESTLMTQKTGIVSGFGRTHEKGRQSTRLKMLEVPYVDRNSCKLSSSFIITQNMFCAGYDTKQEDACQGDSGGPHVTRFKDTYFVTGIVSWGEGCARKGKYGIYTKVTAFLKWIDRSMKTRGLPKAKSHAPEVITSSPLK
Chain of Factor Xa (P00742 41-179 partner limits assumed): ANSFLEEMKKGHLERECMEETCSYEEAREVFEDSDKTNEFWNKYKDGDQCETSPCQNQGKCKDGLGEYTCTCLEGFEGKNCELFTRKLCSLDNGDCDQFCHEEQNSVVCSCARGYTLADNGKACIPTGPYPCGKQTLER
The test system of another series is wild-type SARS-CoV-2. The series is described as follows: microbe, parasite or virus in culture. The settings on record: Severe acute respiratory syndrome coronavirus 2, Calu-3, 72 h, read-out: SARS-CoV-2 Wild-type Calu-3 IC50 (nM). The series is classed as cell-based.
Series [1] is described as follows: in vitro. The settings on record: mouse, plasma.
Series [2] can be described thus: in vitro. Particulars: human, plasma.
The next series has as its target FVIIa (Homo sapiens, UniProt P08709). The series is described as follows: Protease profiling panel, 10-dose IC50. The series is classed as biochemical.
Another series has as its target Cathepsin G (Homo sapiens, UniProt P08311). The series is described as follows: Protease profiling panel, 10-dose IC50. The series is classed as biochemical.
The target in another series is Chymase (Homo sapiens, UniProt P23946). The series is described as follows: Protease profiling panel, 10-dose IC50. The series is classed as biochemical.
Chain of Chymase (P23946 22-247, species assumed): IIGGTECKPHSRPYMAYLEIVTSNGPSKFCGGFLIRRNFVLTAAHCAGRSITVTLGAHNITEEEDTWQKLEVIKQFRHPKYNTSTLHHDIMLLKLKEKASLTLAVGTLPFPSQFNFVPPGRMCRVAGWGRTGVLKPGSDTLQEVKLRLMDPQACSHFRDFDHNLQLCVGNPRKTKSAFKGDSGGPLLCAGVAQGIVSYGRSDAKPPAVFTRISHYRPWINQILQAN
The next series concerns the target T2, Matriptase (Homo sapiens, UniProt Q9Y5Y6).
T2 sequence (Q9Y5Y6 1-855): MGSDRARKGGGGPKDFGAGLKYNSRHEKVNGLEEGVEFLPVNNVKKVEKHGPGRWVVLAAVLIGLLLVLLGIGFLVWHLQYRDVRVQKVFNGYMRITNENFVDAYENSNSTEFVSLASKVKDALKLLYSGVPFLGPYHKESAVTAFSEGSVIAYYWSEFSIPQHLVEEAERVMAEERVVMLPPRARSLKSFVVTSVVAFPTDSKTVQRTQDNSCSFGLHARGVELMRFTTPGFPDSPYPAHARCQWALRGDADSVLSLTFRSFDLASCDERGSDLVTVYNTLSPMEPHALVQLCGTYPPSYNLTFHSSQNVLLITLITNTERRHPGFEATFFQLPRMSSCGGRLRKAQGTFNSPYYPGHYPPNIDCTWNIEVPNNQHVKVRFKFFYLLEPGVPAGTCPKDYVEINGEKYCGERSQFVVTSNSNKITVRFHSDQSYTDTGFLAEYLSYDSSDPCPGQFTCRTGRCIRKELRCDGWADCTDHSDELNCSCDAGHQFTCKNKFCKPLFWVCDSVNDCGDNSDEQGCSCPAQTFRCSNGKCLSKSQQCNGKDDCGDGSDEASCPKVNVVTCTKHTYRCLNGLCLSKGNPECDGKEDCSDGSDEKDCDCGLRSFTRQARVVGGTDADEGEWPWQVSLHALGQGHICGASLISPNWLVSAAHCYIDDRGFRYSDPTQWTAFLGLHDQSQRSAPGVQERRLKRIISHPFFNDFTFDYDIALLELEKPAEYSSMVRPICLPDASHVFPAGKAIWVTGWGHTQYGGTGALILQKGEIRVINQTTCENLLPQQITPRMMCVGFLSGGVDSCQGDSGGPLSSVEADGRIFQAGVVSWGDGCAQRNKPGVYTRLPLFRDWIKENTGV
The series is described as follows: Matriptase enzyme inhibition (published assays). The series is classed as biochemical.

For series [3], the system named is VSV-SARS-CoV-2-Spike protein Pseudotype virus. The series is described as follows: microbe, parasite or virus in culture. Particulars: Vesicular stomatitis virus, Calu-3, read-out: VSV-SARS-CoV-2 Calu-3 EC50 (nM). The series is classed as cell-based.
Another series relates to VSV-MERS. The series is described as follows: microbe, parasite or virus in culture. The series is classed as cell-based, MERS-CoV. Particulars: Middle East respiratory syndrome-related coronavirus, Calu-3, read-out: MERS VSV pseudotype Calu-3 EC50 (nM).

Chain of Caspase 11 (P70343 81-373): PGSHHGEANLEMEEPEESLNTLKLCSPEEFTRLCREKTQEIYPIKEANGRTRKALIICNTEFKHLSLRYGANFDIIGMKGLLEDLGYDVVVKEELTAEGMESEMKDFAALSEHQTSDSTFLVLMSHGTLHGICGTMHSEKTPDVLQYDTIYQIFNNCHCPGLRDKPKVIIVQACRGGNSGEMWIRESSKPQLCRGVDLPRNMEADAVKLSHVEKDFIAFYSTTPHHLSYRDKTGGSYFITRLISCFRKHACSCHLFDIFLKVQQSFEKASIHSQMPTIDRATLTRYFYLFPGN
Chain of FVIIa (P08709 213-466 limits assumed): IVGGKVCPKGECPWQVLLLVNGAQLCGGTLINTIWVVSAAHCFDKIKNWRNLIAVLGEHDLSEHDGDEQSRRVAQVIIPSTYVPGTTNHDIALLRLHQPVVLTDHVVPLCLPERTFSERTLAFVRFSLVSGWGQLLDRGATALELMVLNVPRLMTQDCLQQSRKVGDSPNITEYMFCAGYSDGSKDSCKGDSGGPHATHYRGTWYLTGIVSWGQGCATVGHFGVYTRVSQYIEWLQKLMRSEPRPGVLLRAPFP
Chain of FVIIa (P08709 61-212 partner limits assumed): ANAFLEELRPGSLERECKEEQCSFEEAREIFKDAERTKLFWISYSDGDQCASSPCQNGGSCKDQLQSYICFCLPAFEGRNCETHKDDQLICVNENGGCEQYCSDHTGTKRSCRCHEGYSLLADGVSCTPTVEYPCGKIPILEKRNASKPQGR
Chain of Caspase 10 (Q92851 220-521, species assumed): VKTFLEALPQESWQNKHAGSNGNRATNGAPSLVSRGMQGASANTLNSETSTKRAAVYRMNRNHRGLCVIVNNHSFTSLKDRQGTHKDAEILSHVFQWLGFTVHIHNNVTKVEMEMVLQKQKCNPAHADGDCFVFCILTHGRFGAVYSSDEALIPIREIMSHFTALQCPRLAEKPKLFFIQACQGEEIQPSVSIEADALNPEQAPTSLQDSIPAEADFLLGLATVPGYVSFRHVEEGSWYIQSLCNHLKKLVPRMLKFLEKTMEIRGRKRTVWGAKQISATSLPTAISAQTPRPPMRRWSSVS
Chain of Caspase 4 (P49662 81-377, species assumed): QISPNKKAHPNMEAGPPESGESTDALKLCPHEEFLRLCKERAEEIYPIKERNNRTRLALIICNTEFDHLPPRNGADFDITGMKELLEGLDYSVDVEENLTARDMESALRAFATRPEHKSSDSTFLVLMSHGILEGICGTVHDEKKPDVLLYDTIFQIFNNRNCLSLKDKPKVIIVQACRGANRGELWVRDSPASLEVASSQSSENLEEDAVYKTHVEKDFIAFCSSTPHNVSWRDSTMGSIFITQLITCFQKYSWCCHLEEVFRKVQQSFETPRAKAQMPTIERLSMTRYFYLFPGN
Chain of Caspase 9 (P55211 whole entry, species assumed): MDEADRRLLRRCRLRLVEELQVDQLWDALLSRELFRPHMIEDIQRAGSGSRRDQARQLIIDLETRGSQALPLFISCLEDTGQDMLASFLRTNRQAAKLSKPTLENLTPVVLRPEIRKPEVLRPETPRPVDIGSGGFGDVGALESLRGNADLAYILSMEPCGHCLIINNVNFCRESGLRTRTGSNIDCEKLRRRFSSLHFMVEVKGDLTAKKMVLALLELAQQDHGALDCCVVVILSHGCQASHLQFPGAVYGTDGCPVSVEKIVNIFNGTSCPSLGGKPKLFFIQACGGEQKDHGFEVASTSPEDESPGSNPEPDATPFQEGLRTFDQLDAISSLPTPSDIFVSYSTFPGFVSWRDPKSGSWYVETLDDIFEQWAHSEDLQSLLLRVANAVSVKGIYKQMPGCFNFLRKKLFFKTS
Chain of Cathepsin G (P08311 21-255, species assumed): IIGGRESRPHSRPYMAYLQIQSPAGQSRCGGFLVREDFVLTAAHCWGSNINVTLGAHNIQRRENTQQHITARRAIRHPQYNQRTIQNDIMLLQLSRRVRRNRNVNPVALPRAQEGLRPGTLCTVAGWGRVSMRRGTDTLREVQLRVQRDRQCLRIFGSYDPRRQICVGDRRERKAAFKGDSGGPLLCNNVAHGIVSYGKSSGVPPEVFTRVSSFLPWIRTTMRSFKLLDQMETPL
Chain of Caspase 8 (Q14790 217-479, species assumed): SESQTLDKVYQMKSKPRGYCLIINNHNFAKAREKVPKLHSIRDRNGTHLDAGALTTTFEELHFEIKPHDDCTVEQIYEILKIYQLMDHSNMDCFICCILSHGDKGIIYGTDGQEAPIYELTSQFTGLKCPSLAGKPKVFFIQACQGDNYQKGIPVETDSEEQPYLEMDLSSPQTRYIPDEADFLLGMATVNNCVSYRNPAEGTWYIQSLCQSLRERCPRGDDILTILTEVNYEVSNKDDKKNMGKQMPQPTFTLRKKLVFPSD
Chain of Caspase 14 (P31944 6-242, species assumed): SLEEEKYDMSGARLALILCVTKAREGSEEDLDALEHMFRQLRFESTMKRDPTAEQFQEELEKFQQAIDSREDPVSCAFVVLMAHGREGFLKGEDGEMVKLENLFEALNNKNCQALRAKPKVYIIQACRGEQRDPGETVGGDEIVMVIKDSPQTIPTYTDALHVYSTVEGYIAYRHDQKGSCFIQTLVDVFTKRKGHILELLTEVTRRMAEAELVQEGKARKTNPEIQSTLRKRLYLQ

In general, IC50 refers to the concentration that inhibits the measured activity by half. `CC(=O)N[C@@H](Cc1c[nH]c2ccccc12)C(=O)N[C@@H](CCC(=O)O)C(=O)N[C@@H](Cc1cnc[nH]1)C(=O)N[C@H](C=O)CC(=O)O` [WEHD-CHO] (Ac-WEHD-aldehyde) showed a half-inhibitory concentration (IC50) against Caspase 14 of 0.0682 µM.

As to `CC(=O)N[C@@H](CC(=O)O)C(=O)N[C@@H](CCC(=O)O)C(=O)N[C@H](C(=O)N[C@H](C=O)CC(=O)O)C(C)C` [DEVD-CHO], the IC50 against Caspase 6 was 0.0124 µM; against Caspase 7 it was 0.00231 µM.

Turning to `CC[C@H](C)[C@H](NC(C)=O)C(=O)N[C@@H](CCC(=O)O)C(=O)N[C@H](C(=O)N[C@H](C=O)CC(=O)O)[C@@H](C)O` [IETD-CHO] (Ac-IETD-aldehyde), the IC50 on Caspase 1 was 0.0292 µM; on Caspase 2 it was 0.547 µM; against Caspase 4, 2.13 µM; against Caspase 5 it was 0.0115 µM; against Caspase 8, 0.00283 µM; against Caspase 9, 0.0264 µM. In addition, the IC50 against Caspase 10 came to 0.00917 µM; at Caspase 11, 0.567 µM.

The term half-life denotes the time needed for the level to fall by half in the phase considered. A lower half-life goes with rapid decline. With `CC(=O)N[C@@H](CCC(N)=O)C(=O)N[C@@H](Cc1ccccc1)C(=O)N[C@@H](CCCNC(=N)N)C(=O)c1nc2ccccc2s1` [Compound 6, Ac-QFR-kbt], the IC50 is 0.014 µM against HGFA, more than 20 µM on Thrombin, 0.0014 µM against Factor Xa and 105 nM in the series on wild-type SARS-CoV-2. For the same compound, the half-life in the series “in vitro [1]” and in the series “in vitro [2]” was more than 4.82 h in each case.

For `N=C(N)c1ccc2nc(-c3cc(CC(=O)N[C@@H](CC(=O)O)C(=O)O)cc(-c4cc(S(N)(=O)=O)ccc4O)c3O)[nH]c2c1` [PCI 27483], inhibition at FVIIa was half-maximal at 0.0575 µM (IC50).

Regarding `CC(C)C[C@H](NC(=O)[C@@H](NC(=O)N[C@@H](Cc1ccccc1)C(=O)O)[C@@H]1CCN=C(N)N1)C(=O)N[C@H](C=O)Cc1ccccc1` [Chymostatin], the half-maximal inhibitory concentration (IC50) is 4.04 µM on Cathepsin G and 0.0101 µM against Chymase.

By EC50 is commonly meant the concentration at which the effect is half-maximal. For `CN(C)C(=O)COC(=O)Cc1ccc(OC(=O)c2ccc(NC(=N)N)cc2)cc1` [Camostat, reference compound], the concentration for half-maximal inhibition (IC50) is more than 20 µM on HGFA, 0.007 µM against Matriptase and more than 20 µM on Factor Xa. Further, the EC50 in series [3] was found to be 83 nM; with VSV-MERS it was 5 nM.
